Laboratory results as given in patent US20210059984A1, “METHOD AND COMPOSITION FOR REVERSING COGNITIVE IMPAIRMENTS AND LOSS USING SGLT2 INHIBITORS” (TAISHO PHARMACEUTICAL CO., LTD., priority 2019, published 2021).

What was measured:
[1] = molecular target: T1, SGLT2 (Homo sapiens, UniProt P31639); conditions: among the three FDA approved drugs; cited from earlier work
T1 sequence (P31639 1-672): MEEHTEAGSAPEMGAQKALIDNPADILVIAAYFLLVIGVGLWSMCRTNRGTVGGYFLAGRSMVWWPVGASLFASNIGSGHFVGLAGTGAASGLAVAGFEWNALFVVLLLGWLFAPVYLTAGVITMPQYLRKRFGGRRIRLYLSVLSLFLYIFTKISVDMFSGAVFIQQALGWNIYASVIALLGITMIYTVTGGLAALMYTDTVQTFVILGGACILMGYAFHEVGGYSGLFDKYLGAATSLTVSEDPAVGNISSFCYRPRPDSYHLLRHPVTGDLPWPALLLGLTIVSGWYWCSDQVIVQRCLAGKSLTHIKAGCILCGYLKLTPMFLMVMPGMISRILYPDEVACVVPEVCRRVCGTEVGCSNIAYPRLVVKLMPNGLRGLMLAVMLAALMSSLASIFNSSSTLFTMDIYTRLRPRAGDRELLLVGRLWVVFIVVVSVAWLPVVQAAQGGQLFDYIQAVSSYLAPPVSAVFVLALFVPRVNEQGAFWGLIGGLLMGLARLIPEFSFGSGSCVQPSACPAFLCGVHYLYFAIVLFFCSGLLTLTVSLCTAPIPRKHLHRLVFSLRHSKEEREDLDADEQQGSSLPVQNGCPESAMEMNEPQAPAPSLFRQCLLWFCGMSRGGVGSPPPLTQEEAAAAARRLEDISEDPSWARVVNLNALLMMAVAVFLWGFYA

[2] = test system: diabetic patients; conditions: mean age 77 years, 12-month administration; cited from earlier work
[3] = test system: diabetic mice; conditions: cited from earlier work
[4] = test system: T2DN rats; test: Plasma glucose and HbA1c levels in aged diabetic T2DN rats during drug treatment; assay type: in vivo, rat; conditions: 20 mg/kg/day via drinking water, from 14 months of age for 4 months, FIG. 3
Description: (§1) Unless otherwise indicated, all experiments using SGLT2 inhibitors were performed on 18-month old male Sprague Dawley (SD) and 14-month old […] rats, a genetic rat model of type II diabetes. Outbred SD rats purchased from Charles River were used as a nondiabetic control rat since identical genotypes are not necessary for this study. […] rats were prepared according to Diabetes, vol. 53, March 2004, pages 735-742. […] Treatment with an SGLT2 inhibitor began at 14-months of age and lasted for 4 months to determine whether control of hyperglycemia can slow the progression of cognitive dysfunction. Rats received either a vehicle or the SGLT2 inhibitor, luseogliflozin, at a dose of 20 mg/kg/day via drinking water. The SD rats were used as control. The levels of plasma glucose and HbA1c were measured by drawing a drop of blood from the tail vein during drug treatment and using traditional analytical methods to determine the concentration of plasma glucose and HbA1c.

[5] = test system: middle cerebral artery of T2DN rats; test: Pressure-induced myogenic response of isolated middle cerebral artery; assay type: ex vivo, rat; conditions: aged T2DN rats, 20 mg/kg/day via drinking water for 4 months; FIG. 4
Text: To measure the myogenic response of cerebral arteries, a section of the brain containing middle cerebral artery (MCA) was dissected and immediately placed in Tyrode's solution. A branch of the MCA was microdissected and cannulated with glass pipettes in a pressure myograph chamber filled with a physiologic salt solution (PSS). The vessels were equilibrated at a transmural pressure of 40 mmHg to develop spontaneous tone. After preconditioning, the inner diameter (ID) of MCA in response to intraluminal pressures ranging from 40 to 180 mmHg in steps of 20 mmHg was measured to access the myogenic response. Then, a passive pressure-diameter relationship was determined by replacing the bath solution with calcium-free PSS. The myogenic reactivity in response to an elevation in perfusion pressure was calculated by the formula: IDpressure/D40 mmHg×100(%). […] Next the effect of SGLT2 inhibitor was examined in the treatment of impaired myogenic response and autoregulation of cerebral blood flow was determined. […] The myogenic reactivity in response to an elevation in perfusion pressure was calculated by the formula: Dpressure/ID60 mmHg×100(%). […] After a 10-min equilibration period, baseline CBF was measured at 100 mmHg. […] CBF was measured at each step when the MAP reached a steady state. The infusion of phenylephrine was then stopped which allowed MAP to return to 100 mmHg, and CBF was re-recorded. […]

[6] = test system: T2DN rats; test: Autoregulation of cerebral blood flow (laser Doppler flowmetry); assay type: in vivo, rat; conditions: aged T2DN rats, 20 mg/kg/day via drinking water for 4 months; FIG. 5
Description: Measurements of arterial pressure and cortical blood flow (CBF) were performed by inserting cannulas in the femoral artery and vein for drug delivery and monitoring the mean arterial pressure (MAP). A closed cranial window was prepared on both sides of the brain by thinning the bone using a dental drill until the vessels on the surface of the brain could be visualized. Cortical blood flow (CBF) was measured using a laser Doppler flowmeter (LDF). Unless otherwise indicated, all experiments using SGLT2 inhibitors were performed on 18-month old male Sprague Dawley (SD) and 14-month old […] rats, a genetic rat model of type II diabetes. […] Next the effect of SGLT2 inhibitor was examined in the treatment of impaired myogenic response and autoregulation of cerebral blood flow was determined. […] The myogenic reactivity in response to an elevation in perfusion pressure was calculated by the formula: Dpressure/ID60 mmHg×100(%). […] After a 10-min equilibration period, baseline CBF was measured at 100 mmHg. […] CBF was measured at each step when the MAP reached a steady state. The infusion of phenylephrine was then stopped which allowed MAP to return to 100 mmHg, and CBF was re-recorded. […] Percentage change of CBF was calculated by the formula: [(CBFMAP-CBFbaseline)/CBFbaseline]×100(%).

[7] = test system: T2DN rats; test: Blood-brain barrier leakage by Evans blue dye; assay type: in vivo, rat; conditions: aged T2DN rats, long-term treatment, MAP 180 mmHg for 1 hour; FIG. 6
Description: Unless otherwise indicated, all experiments using SGLT2 inhibitors were performed on 18-month old male Sprague Dawley (SD) and 14-month old […] rats, a genetic rat model of type II diabetes. Outbred SD rats purchased from Charles River were used as a nondiabetic control rat since identical genotypes are not necessary for this study. […] rats were prepared according to Diabetes, vol. 53, March 2004, pages 735-742. […] Treatment with an SGLT2 inhibitor began at 14-months of age and lasted for 4 months to determine whether control of hyperglycemia can slow the progression of cognitive dysfunction. Rats received either a vehicle or the SGLT2 inhibitor, luseogliflozin, at a dose of 20 mg/kg/day via drinking water. The SD rats were used as control. To determine the impact of higher cerebral blood flow with extended middle cerebral artery diameters on the brain, the brains of SGLT2-treated and untreated rats were assessed for blood brain leakage (BBB). Evans blue (EB) dye was used to compare the degree of BBB leakage. EB was injected via the femoral vein, and MAP was maintained at 180 mmHg for 1 hour by adjusting the infusion rate of phenylephrine. […] The brain was then homogenized and BBB leakage was quantitated using a fluorescent microplate reader at excitation and emission wavelengths of 620 nm and 680 nm.

[8] = test system: T2DN rats; test: Functional hyperemia (neurovascular coupling) in response to whisker stimulation; assay type: in vivo, rat; conditions: old diabetic T2DN rats, whisker stimulation 10 Hz for 60 seconds; FIG. 7
Description: as §1, with “[…] In these studies, neurovascular coupling (NVC) responses were investigated prior to cerebral autoregulation study. […] Cortical blood flow (CBF) was measured using a laser Doppler flowmeter ([…] probe was placed above somatosensory cortex for the recording” for “The levels”, “LDF signal change (CBFchange). Percentage changes in CBF at various perfusion pressures vs. CBF at perfusion pressure of 100 mmHg” for “plasma glucose and HbA1c”, “determined in response” for “measured by drawing a drop of blood from the tail vein during drug treatment and using traditional analytical methods”, “whisker stimulation.” for “determine the concentration of plasma glucose and HbA1c.”

[9] = test system: T2DN rats; test: Eight-arm radial water maze test of spatial learning and memory; assay type: in vivo, rat; conditions: DM (T2DN) rats, tests 2, 24, 48 and 72 hours post training; FIG. 8
Description: Unless otherwise indicated, all experiments using SGLT2 inhibitors were performed on 18-month old male Sprague Dawley (SD) and 14-month old […] rats, a genetic rat model of type II diabetes. Outbred SD rats purchased from Charles River were used as a nondiabetic control rat since identical genotypes are not necessary for this study. […] rats were prepared according to Diabetes, vol. 53, March 2004, pages 735-742. […] Treatment with an SGLT2 inhibitor began at 14-months of age and lasted for 4 months to determine whether control of hyperglycemia can slow the progression of cognitive dysfunction. Rats received either a vehicle or the SGLT2 inhibitor, luseogliflozin, at a dose of 20 mg/kg/day via drinking water. The SD rats were used as control. […] The rats are trained to identify a platform marked with a visual cue in one of the 8 arms of the pool to escape. Four memory trials are performed at 2, 24, 48 and 72 hrs after the training, which consist of 4 consecutive swims. The time to reach the platform (latency), the number of errors, distance traveled and swim speed were recorded (Nat Protoc 1: 1671-1679, 2006). Control, DM and DM luseogliflozin treated rats were trained on the first day to recognize the platform located in one of the eight arms to escape, and repeated tests were performed 2, 24, 48, and 72 hours post training. The time taken by the rats to reach the platform was recorded. […]

| Structure (SMILES) | selectivity for SGLT2 compared to SGLT1 [1] | cognitive functions (cognitive performance) [2] | cognitive function [3] | levels of HbA1c [4] | levels of plasma glucose [4] | diameters of middle cerebral artery upon exposure to higher perfusion pressures (myogenic response) [5] | cerebral blood flow on elevation of MAP (autoregulation) [6] | blood brain barrier damage (Evans blue leakage) [7] | functional hyperemia in response to whisker stimulation [8] | escape time (time to reach the platform), cognitive performance [9] |
| --- | --- | --- | --- | --- | --- | --- | --- | --- | --- | --- |
| Cc1ccc([C@@H]2O[C@H](CO)[C@@H](O)[C@H](O)[C@H]2O)cc1Cc1ccc(-c2ccc(F)cc2)s1 [canagliflozin] | least selective | no worsening of their cognitive functions | – | – | – | – | – | – | – | – |
| OC[C@H]1O[C@@H](c2ccc(Cl)c(Cc3ccc(O[C@H]4CCOC4)cc3)c2)[C@H](O)[C@@H](O)[C@@H]1O [empagliflozin] | greatest selectivity | no worsening of their cognitive functions | cognitive function improving effect | – | – | – | – | – | – | – |
| CCOc1ccc(Cc2cc([C@@H]3S[C@H](CO)[C@@H](O)[C@H](O)[C@H]3O)c(OC)cc2C)cc1 [luseogliflozin] | – | – | – | reduced both the levels of plasma glucose and HbA1c to near normal | reduced both the levels of plasma glucose and HbA1c to near normal | completely reversed the increase in the diameters of middle cerebral artery | restored to normal levels | completely reversed the blood brain barrier damage | restored | reduced escape time similar to normal rats |
